Data from patent EP3722296B1, “DIHYDRONAPHTHYRIDINES AND RELATED COMPOUNDS USEFUL AS KINASE INHIBITORS FOR THE TREATMENT OF PROLIFERATIVE DISEASES” (Deciphera Pharmaceuticals, LLC, priority 2012, dated 2013).

What was measured:
Phospho-KIT (Tyr719) = experiment: GIST48 KIT Western Blot; format: cell-based; conditions: GIST48 cells, 4 hours, serum-free medium; read-out: pKIT suppression by western blot analysi GIST48
Procedure, shortened: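 Phospho-KIT (Tyr719) was immunoblotted on PVDF and imaged in fluorescence mode after ECL Plus, with stripping and reprobing for total KIT. IC50 values were derived from the blot signals.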

GIST T1 cells = experiment: GIST T1 Cell Proliferation Assay; format: cell-based; conditions: Homo sapiens, GISTT1, 72 h, 68 hours + 4 hours resazurin
c-KIT D816V kinase = target: T1, c-KIT D816V kinase (Homo sapiens, UniProt P10721, D816V); experiment: c-KIT D816V kinase Assay; format: biochemical; conditions: enzymatic assay, ATP 200 uM
T1 construct: residues T544-V976 with N-terminal GST fusion; purchased deCODE Biostructures
T1 sequence (P10721 544-976 D816V): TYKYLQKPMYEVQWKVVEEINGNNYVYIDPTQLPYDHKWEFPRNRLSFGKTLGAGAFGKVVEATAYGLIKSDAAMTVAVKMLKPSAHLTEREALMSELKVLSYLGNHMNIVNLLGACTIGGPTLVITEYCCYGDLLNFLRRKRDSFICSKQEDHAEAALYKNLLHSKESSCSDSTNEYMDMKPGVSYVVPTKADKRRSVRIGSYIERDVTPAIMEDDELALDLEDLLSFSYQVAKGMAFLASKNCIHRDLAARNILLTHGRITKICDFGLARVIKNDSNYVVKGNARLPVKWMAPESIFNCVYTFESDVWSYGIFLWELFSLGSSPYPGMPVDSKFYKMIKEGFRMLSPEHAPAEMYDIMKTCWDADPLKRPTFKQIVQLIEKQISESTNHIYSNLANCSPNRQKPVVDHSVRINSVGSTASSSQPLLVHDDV
Procedure, shortened: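 Coupled assay in which NADH oxidation was tracked as decreasing absorbance at 340 nm, continuously for 5 hours at 30 °C after adding serially diluted compound. Enzyme: cKit residues T544-V976 with N-terminal tag, GST fusion and TEV cleavage site.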

c-KIT VVDV kinase = target: T2, c-KIT VVDV kinase (Homo sapiens, UniProt P10721, D816V/DEL559-560); experiment: cKIT-VVDV kinase Assay; format: biochemical; conditions: enzymatic assay; V559+V560 deletions and D816V mutation
T2 construct: This construct contains residues T544-V976 of cKit; GST (N); TEV cleavage site (internal); purchased deCODE Biostructures
T2 sequence (P10721 with tags, fused parts or gaps DEL559-560/D816V): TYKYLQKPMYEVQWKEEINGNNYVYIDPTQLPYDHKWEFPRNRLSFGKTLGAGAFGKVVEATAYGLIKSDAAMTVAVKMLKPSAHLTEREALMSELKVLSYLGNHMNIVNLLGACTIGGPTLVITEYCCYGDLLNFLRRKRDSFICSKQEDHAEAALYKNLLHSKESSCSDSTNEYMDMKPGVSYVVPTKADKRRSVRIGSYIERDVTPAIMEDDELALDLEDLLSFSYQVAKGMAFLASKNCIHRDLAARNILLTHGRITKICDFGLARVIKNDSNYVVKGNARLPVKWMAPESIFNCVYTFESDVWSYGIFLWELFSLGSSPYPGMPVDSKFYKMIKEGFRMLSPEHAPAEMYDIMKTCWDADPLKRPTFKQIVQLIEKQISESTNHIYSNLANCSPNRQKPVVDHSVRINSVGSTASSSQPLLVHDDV
Procedure: In this assay, the oxidation of NADH (measured by decrease in absorbance at 340 nm) was continuously monitored spectrophotometrically. […] The inhibition reaction was started by mixing serial diluted test compound with the above reaction mixture. The absorption at 340 nm was monitored continuously for 5 hours at 30 °C on Synergy 2 plate reader (BioTech). […] The protein construct was prepared by deCODE Biostructures using procedures known in the art. […] This construct is identical to Seq ID no.

| Structure (SMILES) | IC50 (Phospho-KIT (Tyr719)) | IC50 (GIST T1 cells) | IC50 (c-KIT D816V kinase) | IC50 (c-KIT VVDV kinase) |
| --- | --- | --- | --- | --- |
| CCn1c(=O)c(-c2cc(NC(=O)Nc3ccc(F)c(CN4CCN(C)CC4)c3)c(F)cc2Cl)cc2cnc(NC)cc21 [Example 87, 1-(4-chloro-5-(1-ethyl-7-(methylamino)-2-oxo-1,2-dihydro-1,6-naphthyridin-3-yl)-2-fluorophenyl)-3-(4-fluoro-3-((4-methylpiperazin-1-yl)methyl)phenyl)urea] | 0.01 to 0.1 µM | 0.01 to 0.1 µM | 0.1 to 1 µM |  |
| CCn1c(=O)c(-c2cc(NC(=O)Nc3cccc(F)c3)c(F)cc2Cl)cc2cnc(NCCOC)cc21 [Example 28, 1-(4-chloro-5-(1-ethyl-7-(2-methoxyethylamino)-2-oxo-1,2-dihydro-1,6-naphthyridin-3-yl)-2-fluorophenyl)-3-(3-fluorophenyl)urea] | 0.1 to 1 µM | 0.01 to 0.1 µM | 0.01 to 0.1 µM | 0.01 to 0.1 µM |
| CCn1c(=O)c(-c2cc(NC(=O)Nc3ccccc3)c(F)cc2Br)cc2cnc(N)cc21 [Example 57, 1-(5-(7-amino-1-ethyl-2-oxo-1,2-dihydro-1,6-naphthyridin-3-yl)-4-bromo-2-fluorophenyl)-3-phenylurea] | 0.1 to 1 µM | < 0.01 µM | 0.1 to 1 µM |  |
| CNc1cc2c(cn1)cc(-c1cc(NC(=O)Nc3cccc(F)c3)c(F)cc1Cl)c(=O)n2C(C)C [Example 77, 1-(4-chloro-2-fluoro-5-(1-isopropyl-7-(methylamino)-2-oxo-1,2-dihydro-1,6-naphthyridin-3-yl)phenyl)-3-(3-fluorophenyl)urea] | 0.01 to 0.1 µM | < 0.01 µM | < 0.01 µM |  |
| CCn1c(=O)c(-c2cc(NC(=O)Nc3ccccc3)c(F)cc2Cl)cc2cnc(NC(=O)OC)cc21 [Example 73, methyl (3-(2-chloro-4-fluoro-5-(3-phenylureido)phenyl)-1-ethyl-2-oxo-1,2-dihydro-1,6-naphthyridin-7-yl)carbamate] | 0.01 to 0.1 µM | 0.01 to 0.1 µM | < 0.01 µM | < 0.01 µM |
| CCn1c(=O)c(-c2cc(NC(=O)Nc3cc(F)cc(F)c3)c(F)cc2C)cc2cnc(NC)cc21 [Example 60, 1-(3,5-difluorophenyl)-3-(5-(1-ethyl-7-(methylamino)-2-oxo-1,2-dihydro-1,6-naphthyridin-3-yl)-2-fluoro-4-methylphenyl)urea] | > 1 µM | 0.01 to 0.1 µM | 0.01 to 0.1 µM | 0.01 to 0.1 µM |
| CCn1c(=O)c(-c2cc(NC(=O)Nc3ccccc3)c(F)cc2Cl)cc2cnc(NC(=O)N(C)C)cc21 [Example 70, 3-(3-(2-chloro-4-fluoro-5-(3-phenylureido)phenyl)-1-ethyl-2-oxo-1,2-dihydro-1,6-naphthyridin-7-yl)-1,1-dimethylurea] | 0.01 to 0.1 µM | < 0.01 µM | < 0.01 µM | < 0.01 µM |
| CCn1c(=O)c(-c2cc(NC(=O)Nc3ccccc3)c(F)cc2Br)cc2cnc(NCCOC)cc21 [Example 51, 1-(4-bromo-5-(1-ethyl-7-(2-methoxyethylamino)-2-oxo-1,2-dihydro-1,6-naphthyridin-3-yl)-2-fluorophenyl)-3-phenylurea] | 0.1 to 1 µM | < 0.01 µM | 0.1 to 1 µM | 0.1 to 1 µM |
| CCn1c(=O)c(-c2cc(NC(=O)Nc3cc(F)ccc3F)c(F)cc2C)cc2cnc(NC)cc21 [Example 61, 1-(2,5-difluorophenyl)-3-(5-(1-ethyl-7-(methylamino)-2-oxo-1,2-dihydro-1,6-naphthyridin-3-yl)-2-fluoro-4-methylphenyl)urea] | > 1 µM | < 0.01 µM | 0.01 to 0.1 µM | < 0.01 µM |
| CCn1c(=O)c(-c2cc(NC(=O)Nc3cccc(F)c3)c(F)cc2C)cc2cnc(NC)cc21 [Example 44, 1-(5-(1-ethyl-7-(methylamino)-2-oxo-1,2-dihydro-1,6-naphthyridin-3-yl)-2-fluoro-4-methylphenyl)-3-(3-fluorophenyl)urea] | 0.01 to 0.1 µM | < 0.01 µM | 0.01 to 0.1 µM | 0.01 to 0.1 µM |
| CCn1c(=O)c(-c2cc(NC(=O)Nc3cccc(F)c3)c(F)cc2Br)cc2cnc(NC)cc21 [Example 50, 1-(4-bromo-5-(1-ethyl-7-(methylamino)-2-oxo-1,2-dihydro-1,6-naphthyridin-3-yl)-2-fluorophenyl)-3-(3-fluorophenyl)urea] | 0.1 to 1 µM | 0.01 to 0.1 µM | 0.01 to 0.1 µM | 0.1 to 1 µM |
| CCn1c(=O)c(-c2cc(NC(=O)Nc3ccccc3)c(F)cc2C)cc2cnc(NC)cc21 [Example 23, 1-(5-(1-ethyl-7-(methylamino)-2-oxo-1,2-dihydro-1,6-naphthyridin-3-yl)-2-fluoro-4-methylphenyl)-3-phenylurea] | 0.1 to 1 µM | < 0.01 µM | 0.01 to 0.1 µM | 0.01 to 0.1 µM |
| CCn1c(=O)c(-c2cc(NC(=O)Nc3ccccc3)c(F)cc2Cl)cc2cnc(NC(=O)N3CC(O)C3)cc21 [Example 81, N-(3-(2-chloro-4-fluoro-5-(3-phenylureido)phenyl)-1-ethyl-2-oxo-1,2-dihydro-1,6-naphthyridin-7-yl)-3-hydroxyazetidine-1-carboxamide] | 0.01 to 0.1 µM | < 0.01 µM | 0.01 to 0.1 µM |  |
| CCn1c(=O)c(-c2cc(NC(=O)Nc3ccccc3)c(F)cc2Cl)cc2cnc(NC(C)=O)cc21 [Example 54, 1-(5-(7-acetamido-1-ethyl-2-oxo-1,2-dihydro-1,6-naphthyridin-3-yl)-4-chloro-2-fluorophenyl)-3-phenylurea] | 0.01 to 0.1 µM | < 0.01 µM | < 0.01 µM | < 0.01 µM |
| CNc1cc2c(cn1)cc(-c1cc(NC(=O)Nc3ccccc3)c(F)cc1Cl)c(=O)n2C(C)C [Example 22, 1-(4-chloro-2-fluoro-5-(1-isopropyl-7-(methylamino)-2-oxo-1,2-dihydro-1,6-naphthyridin-3-yl)phenyl)-3-phenylurea] | 0.01 to 0.1 µM | < 0.01 µM | < 0.01 µM | < 0.01 µM |
| CCn1c(=O)c(-c2cc(NC(=O)Nc3cccc4ccccc34)c(F)cc2Cl)cc2cnc(NC)cc21 [Example 6, 1-(4-chloro-5-(1-ethyl-7-(methylamino)-2-oxo-1,2-dihydro-1,6-naphthyridin-3-yl)-2-fluorophenyl)-3-(naphthalen-1-yl)urea] | < 0.01 µM | 0.01 to 0.1 µM | 0.01 to 0.1 µM | < 0.01 µM |
| CCn1c(=O)c(-c2cc(NC(=O)Nc3cccc(F)c3)c(F)cc2Cl)cc2cnc(N)cc21 [Example 20, 1-(5-(7-amino-1-ethyl-2-oxo-1,2-dihydro-1,6-naphthyridin-3-yl)-4-chloro-2-fluorophenyl)-3-(3-fluorophenyl)urea] | 0.1 to 1 µM |  | < 0.01 µM | < 0.01 µM |
| CCn1c(=O)c(-c2cc(NC(=O)Nc3ccccc3)c(F)cc2Cl)cc2cnc(NC)cc21 [Example 3, 1-(4-chloro-5-(1-ethyl-7-(methylamino)-2-oxo-1,2-dihydro-1,6-naphthyridin-3-yl)-2-fluorophenyl)-3-phenylurea] | 0.1 to 1 µM | < 0.01 µM | 0.01 to 0.1 µM | < 0.01 µM |
| CCn1c(=O)c(-c2cc(NC(=O)Nc3cccc(F)c3)c(F)cc2C)cc2cnc(N)cc21 [Example 58, 1-(5-(7-amino-1-ethyl-2-oxo-1,2-dihydro-1,6-naphthyridin-3-yl)-2-fluoro-4-methylphenyl)-3-(3-fluorophenyl)urea] | 0.1 to 1 µM | < 0.01 µM | 0.01 to 0.1 µM |  |
| CCn1c(=O)c(-c2cc(NC(=O)Nc3cc(F)cc(F)c3)c(F)cc2Cl)cc2cnc(NC(C)=O)cc21 [Example 67, N-(3-(2-chloro-5-(3-(3,5-difluorophenyl)ureido)-4-fluorophenyl)-1-ethyl-2-oxo-1,2-dihydro-1,6-naphthyridin-7-yl)acetamide] | < 0.01 µM | < 0.01 µM | < 0.01 µM |  |
| CCn1c(=O)c(-c2cc(NC(=O)Nc3ccccc3)c(F)cc2C)cc2cnc(NC(=O)N(C)C)cc21 [Example 101, 3-(1-ethyl-3-(4-fluoro-2-methyl-5-(3-phenylureido)phenyl)-2-oxo-1,2-dihydro-1,6-naphthyridin-7-yl)-1,1-dimethylurea] | > 1 µM | < 0.01 µM | 0.01 to 0.1 µM |  |
| CCn1c(=O)c(-c2cc(NC(=O)Nc3ccccc3)c(F)cc2Cl)cc2cnc(NCCOC)cc21 [Example 27, 1-(4-chloro-5-(1-ethyl-7-(2-methoxyethylamino)-2-oxo-1,2-dihydro-1,6-naphthyridin-3-yl)-2-fluorophenyl)-3-phenylurea] | 0.01 to 0.1 µM |  | 0.01 to 0.1 µM | 0.01 to 0.1 µM |
| CCn1c(=O)c(-c2cc(NC(=O)Nc3ccccc3)c(F)cc2Cl)cc2cnc(NC(=O)N3CC(N(C)C)C3)cc21 [Example 102, N-(3-(2-chloro-4-fluoro-5-(3-phenylureido)phenyl)-1-ethyl-2-oxo-1,2-dihydro-1,6-naphthyridin-7-yl)-3-(dimethylamino)azetidine-1-carboxamide] | 0.01 to 0.1 µM | < 0.01 µM | 0.01 to 0.1 µM |  |
